Patent US20210395651A1, “COMPOUNDS STABILIZING HYDROLASES IN LIQUIDS” (BASF SE, priority 2018, published 2021)

Target: T1, Lipolase® 100L (Thermomyces lanuginosus, UniProt O59952)
T1 construct: purchased Sigma-Aldrich
T1 sequence (O59952 23-291): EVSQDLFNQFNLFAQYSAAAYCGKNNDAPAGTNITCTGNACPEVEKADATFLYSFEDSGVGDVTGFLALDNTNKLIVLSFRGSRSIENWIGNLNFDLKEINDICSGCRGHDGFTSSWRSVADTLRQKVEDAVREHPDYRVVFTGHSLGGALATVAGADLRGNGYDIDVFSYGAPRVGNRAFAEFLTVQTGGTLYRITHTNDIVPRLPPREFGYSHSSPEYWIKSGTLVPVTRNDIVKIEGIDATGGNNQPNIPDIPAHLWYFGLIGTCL
Test: Lipase storage stability in liquid formulations at 37° C. (pNP-valerate activity)
Assay type: biochemical, Thermomyces lanuginosa
Conditions: for lipase activity, 3 d: 3 d storage at 37° C.; for lipase activity, 7 d: 7 d storage at 37° C.; for lipase activity, 14 d: 14 d storage at 37° C.; for lipase activity, 21 d: 21 d storage at 37° C.; for lipase activity, 28 d: 28 d storage at 37° C.; for lipase activity, 35 d: 35 d storage at 37° C.; for lipase activity, T0: relative to 100% value of reference formulation at time 0
Method: The storage stability of Lipase was assessed at 37° C.
Base test formulations were manufactured by making base formulations I to V by mixing the components according to Table 1.
The respective component (a) or comparative compound was added, if applicable, to the respective base formulation in amounts as indicated in Table 1.
Lipase used: Lipolase® 100L (CAS-No. 9001-62-1, EC-No. 232-619-9) was purchased from Sigma-Aldrich.
The amount of lipase as provided in Table 1 refers to active protein.
Water was added to accomplish the balance to 100.
Lipolase activity at certain points in time as indicated in Table 2 was be determined by employing pNitrophenol-valerate (2.4 mM pNP-C5 in 100 mM Tris pH 8.0, 0.01% Triton X100) as a substrate. The absorption at 405 nm was measured at 20° C. every 30 seconds over 5 minutes.
The slope (absorbance increase at 405 nm per minute) of the time dependent absorption-curve is directly proportional to the activity of the lipase.
The […] activity values provided in Table 2 were calculated referring to the 100% value determined in the reference formulation at the time 0.
The nomenclature of formulations is as follows: the Roman number before the full stop characterizes the base formulation, the Arabian number the type of compound (A.# compound according to invention (component (a)); (B.#) comparative compound).

[1] = base formulation I. (Lipolase 0.2 wt%, tested compound 2.5 wt%)
[2] = base formulation II. (Lipolase 0.2 wt%, tested compound 2.5 wt%)
[3] = base formulation III. (Lipolase 0.2 wt%, tested compound 2.0 wt%)
[4] = base formulation IV. (Lipolase 0.2 wt%, tested compound 2.0 wt%)
[5] = base formulation V. (Lipolase 0.2 wt%, tested compound 2.0 wt%)

Compound | lipase activity, 3 d [1] [%] | lipase activity, 7 d [1] [%] | lipase activity, 14 d [1] [%] | lipase activity, 21 d [1] [%] | lipase activity, 28 d [1] [%] | lipase activity, 35 d [1] [%] | lipase activity, T0 [1] [%] | lipase activity, 3 d [2] [%] | lipase activity, 7 d [2] [%] | lipase activity, 14 d [2] [%] | lipase activity, 21 d [2] [%] | lipase activity, 28 d [2] [%] | lipase activity, 35 d [2] [%] | lipase activity, T0 [2] [%] | lipase activity, 3 d [3] [%] | lipase activity, 7 d [3] [%] | lipase activity, 14 d [3] [%] | lipase activity, 21 d [3] [%] | lipase activity, 28 d [3] [%] | lipase activity, 35 d [3] [%] | further results
CCOC(=O)CC(O)(CC(=O)OCC)C(=O)OCC [A.1, Triethylcitrate] | 102 | 96 | 94 | 87 | 85 | 80 | 100 | 101 | 94 | 90 | 88 | 83 | 80 | 100 | 98 | 96 | 93 | 90 | 85 | 82 | lipase activity, T0 [3]: 100%; lipase activity, 3 d [4]: 96%; lipase activity, 7 d [4]: 94%; lipase activity, 14 d [4]: 93%; lipase activity, 21 d [4]: 88%; lipase activity, 28 d [4]: 85%; lipase activity, 35 d [4]: 82%; lipase activity, T0 [4]: 98%; lipase activity, 3 d [5]: 96%; lipase activity, 7 d [5]: 93%; lipase activity, 14 d [5]: 89%; lipase activity, 21 d [5]: 84%; lipase activity, 28 d [5]: 81%; lipase activity, 35 d [5]: 79%; lipase activity, T0 [5]: 100%
CCCOC(=O)CC(O)(CC(=O)OCCC)C(=O)OCCC [A.2, Tripropylcitrate] | 100 | 98 | 94 | 90 | 87 | 82 | 101 | – | – | – | – | – | – | – | 100 | 101 | 97 | 94 | 90 | 87 | lipase activity, T0 [3]: 102%
CCCCOC(=O)CC(O)(CC(=O)OCCCC)C(=O)OCCCC [A.3, Tributylcitrate] | – | – | – | – | – | – | – | – | – | – | – | – | – | – | – | – | – | – | – | – | lipase activity, 3 d [4]: 100%; lipase activity, 7 d [4]: 96%; lipase activity, 14 d [4]: 95%; lipase activity, 21 d [4]: 90%; lipase activity, 28 d [4]: 88%; lipase activity, 35 d [4]: 85%; lipase activity, T0 [4]: 99%; lipase activity, 3 d [5]: 97%; lipase activity, 7 d [5]: 92%; lipase activity, 14 d [5]: 88%; lipase activity, 21 d [5]: 83%; lipase activity, 28 d [5]: 80%; lipase activity, 35 d [5]: 73%; lipase activity, T0 [5]: 101%
CCCCOC(=O)CC(CC(=O)OCCCC)(OC(C)=O)C(=O)OCCCC [A.4, Acetyltributylcitrate] | 104 | 99 | 93 | 88 | 83 | 78 | 102 | – | – | – | – | – | – | – | – | – | – | – | – | – | lipase activity, 3 d [4]: 97%; lipase activity, 7 d [4]: 95%; lipase activity, 14 d [4]: 93%; lipase activity, 21 d [4]: 89%; lipase activity, 28 d [4]: 86%; lipase activity, 35 d [4]: 83%; lipase activity, T0 [4]: 101%; lipase activity, 3 d [5]: 100%; lipase activity, 7 d [5]: 94%; lipase activity, 14 d [5]: 90%; lipase activity, 21 d [5]: 85%; lipase activity, 28 d [5]: 80%; lipase activity, 35 d [5]: 74%; lipase activity, T0 [5]: 101%
CCOC(=O)CC(CC(=O)OCC)(OC(C)=O)C(=O)OCC [A.5, Acetyltriethylcitrate] | 100 | 97 | 92 | 86 | 81 | 74 | 97 | 98 | 97 | 93 | 90 | 85 | 81 | 102 | 95 | 93 | 88 | 85 | 80 | 77 | lipase activity, T0 [3]: 98%
CCOC(=O)CC(O)(CC(=O)O)C(=O)O (centres unmarked) [A.6, Monoethylcitrate] | – | – | – | – | – | – | – | 100 | 95 | 91 | 84 | 80 | 71 | 102 | 96 | 91 | 87 | 82 | 79 | 74 | lipase activity, T0 [3]: 96%; lipase activity, 3 d [4]: 96%; lipase activity, 7 d [4]: 92%; lipase activity, 14 d [4]: 89%; lipase activity, 21 d [4]: 86%; lipase activity, 28 d [4]: 85%; lipase activity, 35 d [4]: 78%; lipase activity, T0 [4]: 98%
O=C(CC(O)(CC(=O)OCc1ccccc1)C(=O)OCc1ccccc1)OCc1ccccc1 [A.8, Tribenzylcitrate] | – | – | – | – | – | – | – | 94 | 90 | 87 | 83 | 81 | 77 | 97 | – | – | – | – | – | – | lipase activity, 3 d [5]: 96%; lipase activity, 7 d [5]: 93%; lipase activity, 14 d [5]: 88%; lipase activity, 21 d [5]: 85%; lipase activity, 28 d [5]: 82%; lipase activity, 35 d [5]: 77%; lipase activity, T0 [5]: 98%
